System: bacterial counts on the fingertips
Assay: prEN 12791 in vivo anti-microbial activity on fingertips of volunteers
Parameters: species or system human
Details: after 3 minutes (immediate); 20 volunteers; 60% propanol compared with the formulation (p<0.0001)
Method: The anti-microbial efficacy of the formulation of Example 5 was assessed in the clinical setting. The acceptability of the formulation of Example 5 by health care workers (HCW) was investigated. In vitro and in vivo assessment of the formulation was undertaken in accordance with European standards currently used for assessing hygienic and surgical rubs and washes (prEN 12054 and prEN 12791).
prEN 12054 and prEN 12791 (European Standards for Assessing Hygienic and Surgical Hand Rubs and Washes) • In vitro antibacterial efficacy of the formulation was assessed for anti-microbial activity against Staphylococcus aureus ATCC 6538, Enterococcus hirae ATCC 10541, Pseudomonas aeruginosa ATCC 15442 and Escherichia coli NCTC 10536 in accordance with prEN 12054. In vivo anti-microbial activity of the formulation was compared with 60% (v/v) […] (gold standard) in accordance with […]. Twenty laboratory volunteers participated in the assessment of the formulation in accordance to prEN 12791.

CCCO [60% propanol, propanol]
Mean reduction factor in the bacterial counts on the fingertips, immediate: significantly higher mean reduction factor

Source: US20060246026A1, “Barrier formulation comprising a silicone based emulsion” (priority 2003, published 2006)
